Source: PMC7014401

Assays:
[1] = On-DNA RCM (terminal diene to cyclic alkene), catalyst B (Grubbs-III 2,2'-biphenyldiamine derivative, 10 eq), MgCl2 20000 eq, NH4Cl 12000 eq; conditions: H2O:EtOH:MeOAc 5:4:1, 0.02 mM, 25.0 °C, 0.5 h
[2] = On-DNA RCM, Grubbs III catalyst A (150 eq), MgCl2 8000 eq (Lu et al. conditions, heterogeneous, rerun here); conditions: H2O:tBuOH 3:2, 0.09 mM, 25.0 °C, 1.0 h
[3] = On-DNA RCM, Grubbs III catalyst A (10 eq) + 2,2'-biphenyldiamine C (20 eq), MgCl2 20000 eq, NH4Cl 12000 eq (Alternative #2); conditions: H2O:EtOH:MeOAc 5:4:1, 0.02 mM, 25.0 °C, 0.5 h
[4] = On-DNA RCM, Grubbs III catalyst A (10 eq), MgCl2 20000 eq, NH4Cl 12000 eq (Alternative #1); conditions: H2O:EtOH:MeOAc 5:4:1, 0.02 mM, 25.0 °C, 0.5 h
[5] = from C=CCCCC(=O)N(CC=C)CC(=O)NC, 8-membered ring
[6] = from C=CCCC[C@](C)(NC(=O)[C@H](CCCNC(=N)N)NC(=O)[C@H](Cc1c[nH]cn1)NC(=O)[C@H](CC(C)C)NC(=O)[C@](C)(CCCC=C)NC(=O)[C@H](CCCCN)NC(=O)[C@H](CCCNC(=N)N)NC(=O)[C@H](CCCNC(=N)N)NC(=O)[C@H](CCCNC(=N)N)NC(=O)[C@H](CCCNC(=N)N)NC(C)=O)C(=O)N[C@@H](CC(C)C)C(=O)N[C@@H](CCC(N)=O)C(=O)N[C@@H](CC(=O)O)C(=O)N[C@@H](CCc1cn(CC(=O)NC)nn1)C(N)=O, 21-membered ring
[7] = from C=CCCCC(=O)NCCCC[C@@H](NC(=O)COCCOCCNC(=O)CCCC=C)C(=O)NC, 26-membered ring
[8] = from C=CCCCC(=O)NCCCC[C@H](NC(=O)CCCC=C)C(=O)NC, 17-membered ring

With `CNC(=O)CCOCCOCCOCCOCCn1cc(CC[C@H](NC(=O)[C@H](CC(=O)O)NC(=O)[C@H](CCC(N)=O)NC(=O)[C@H](CC(C)C)NC(=O)[C@]2(C)CCCC=CCCC[C@](C)(NC(=O)[C@H](CCCCN)NC(=O)[C@H](CCCNC(=N)N)NC(=O)[C@H](CCCNC(=N)N)NC(=O)[C@H](CCCNC(=N)N)NC(=O)[C@H](CCCNC(=N)N)NC(C)=O)C(=O)N[C@@H](CC(C)C)C(=O)N[C@@H](Cc3c[nH]cn3)C(=O)N[C@@H](CCCNC(=N)N)C(=O)N2)C(N)=O)nn1` the ring closure, conversion by HPLC (% conversion (LC/MS deconvolution)) ([1]; from C=CCCC[C@](C)(NC(=O)[C@H](CCCNC(=N)N)NC(=O)[C@H](Cc1c[nH]cn1)NC(=O)[C@H](CC(C)C)NC(=O)[C@](C)(CCCC=C)NC(=O)[C@H](CCCCN)NC(=O)[C@H](CCCNC(=N)N)NC(=O)[C@H](CCCNC(=N)N)NC(=O)[C@H](CCCNC(=N)N)NC(=O)[C@H](CCCNC(=N)N)NC(C)=O)C(=O)N[C@@H](CC(C)C)C(=O)N[C@@H](CCC(N)=O)C(=O)N[C@@H](CC(=O)O)C(=O)N[C@@H](CCc1cn(CCOCCOCCOCCOCCC(=O)NC)nn1)C(N)=O, 21-membered ring) was 65.
With `CNC(=O)[C@@H]1CCCCNC(=O)CCCC=CCC(=O)N[C@H](c2cccnc2)CC(=O)N1` the ring closure, conversion by HPLC (% conversion (LC/MS deconvolution)) ([2]; from C=CCCCC(=O)NCCCC[C@H](NC(=O)C[C@H](NC(=O)CC=C)c1cccnc1)C(=O)NC, 19-membered ring) was 0.
With `CNC(=O)CN1CC=CCCCC1=O` [5-hexenoyl-(N-allyl)Gly-NH-DNA] the ring closure, conversion by HPLC (% conversion (LC/MS deconvolution)) [2, 5] was 65, the ring closure, conversion by HPLC (% conversion (LC/MS deconvolution)) [3, 5] was 73 and the ring closure, conversion by HPLC (% conversion (LC/MS deconvolution)) [1, 5] was 62. It also gave a ring closure, conversion by HPLC (% conversion (LC/MS deconvolution)) [4, 5] of 33.
Work on `CNC(=O)Cn1cc(CC[C@H](NC(=O)[C@H](CC(=O)O)NC(=O)[C@H](CCC(N)=O)NC(=O)[C@H](CC(C)C)NC(=O)[C@]2(C)CCCC=CCCC[C@](C)(NC(=O)[C@H](CCCCN)NC(=O)[C@H](CCCNC(=N)N)NC(=O)[C@H](CCCNC(=N)N)NC(=O)[C@H](CCCNC(=N)N)NC(=O)[C@H](CCCNC(=N)N)NC(C)=O)C(=O)N[C@@H](CC(C)C)C(=O)N[C@@H](Cc3c[nH]cn3)C(=O)N[C@@H](CCCNC(=N)N)C(=O)N2)C(N)=O)nn1` yielded a ring closure, conversion by HPLC (% conversion (LC/MS deconvolution)) [2, 6] of 22 and a ring closure, conversion by HPLC (% conversion (LC/MS deconvolution)) [1, 6] of 52.
Molecule `CNC(=O)[C@H]1CCCCNC(=O)CCCC=CCCCC(=O)NCCOCCOCC(=O)N1` has a ring closure, conversion by HPLC (% conversion (LC/MS deconvolution)) [2, 7] of 23, a ring closure, conversion by HPLC (% conversion (LC/MS deconvolution)) [3, 7] of 61 and a ring closure, conversion by HPLC (% conversion (LC/MS deconvolution)) [1, 7] of 70. It also gave a ring closure, conversion by HPLC (% conversion (LC/MS deconvolution)) [4, 7] of 58.
For `CNC(=O)[C@@H]1CCCCNC(=O)CCCC=CCCCC(=O)N1` [5-hexenoyl-Lys(5-hexenoyl)-NH-DNA (56-bp dsDNA)], the ring closure, conversion by HPLC (% conversion (LC/MS deconvolution)) [1, 8] was 69.
In the case of `CNC(=O)[C@@H]1CCCCNC(=O)CCCC=CCCCC(=O)N1` [5-hexenoyl-Lys(5-hexenoyl)-NH-DNA], the ring closure, conversion by HPLC (% conversion (LC/MS deconvolution)) [2, 8] is reported as 70, the ring closure, conversion by HPLC (% conversion (LC/MS deconvolution)) [3, 8] is reported as 75 and the ring closure, conversion by HPLC (% conversion (LC/MS deconvolution)) [1, 8] is reported as 78. It also gave a ring closure, conversion by HPLC (% conversion (LC/MS deconvolution)) [4, 8] of 72.
